Values joined by “and” are separate entries in the source; they are usually repeats but may differ in a detail not shown here. Equal values may be shown once. Where a name gives a salt, the structure may show the parent alone.
Columns and labels:
[1] = Body weight of B-hPD-1 humanized mice bearing MC38-hPD-L1 tumors, Embodiment 2 (antibody 2E5 / Lenvatinib mesylate); assay type: in vivo, Mus musculus
Protocol: (§1) MC38-hPD-L1 tumor cells were resuspended in 1×PBS to a concentration of 5×10^5 cells per 0.1 mL. Each of the B-hPD-1 humanized mice was subcutaneously inoculated at the right lateral thorax region with 0.1 mL of the cell suspension. When the average tumor volume reached about 77 mm^3, the mice with moderate tumor volume were selected and randomly divided into 6 groups according to tumor volume, with 10 mice in each group, and the treatment was initiated on the same day.
(§2) Animals were weighed 2-3 times a week before tumor inoculation, during animal grouping and the treatment, and before the euthanasia.
(§3) The original data measured and observed must be recorded. The original data was analyzed and the results were expressed by mean and standard error (Mean±SEM). The data of body weight, tumor volume and tumor weight was statistically analyzed using independent-samples t-test. All data were analyzed using SPSS, P<0.05 is considered to be statistically significant.

[2] = system: subcutaneous MC38-hPD-L1 transplanted tumor; assay: Antibody 2E5 monotherapy or in combination with Lenvatinib mesylate on B-hPD-1 humanized mouse MC38-hPD-L1 colon cancer model: tumor volume, tumor weight, TGI, synergy score; assay type: in vivo
Protocol: (§4) Synergy score was calculated using the following formula described in Clarke R. Issues in experimental design and endpoint analysis in the study of experimental cytotoxic agents in vivo in breast cancer and other models[J]. Breast Cancer Research & Treatment, 1997, 46(2-3):255-278, which is incorporated by reference in its entirety:
(§5) Synergy score=((A/C)×(B/C))/(AB/C);
(§6) where A is RTV value of drug A; B is RTV value of drug B; C is RTV value of vehicle control; AB is RTV value of combination treatment with A and B respectively. • Synergy score>1 represents synergistic; • Synergy score=1 represents additive; • Synergy score<1 represents antagonistic.
(§7) where V0 and Vt are the average tumor volume at the start of treatment (day 0) and the average tumor volume on a certain time point (day t).
(§8) Mouse colon cancer cells MC38 were purchased from Shun Ran (Shanghai) Biotechnology Co., Ltd., and the cells were cultured in a 37° C., 5% CO2 incubator supplemented with Dulbecco's Modified Eagle's medium containing 10% inactivated fetal bovine serum. MC38 cells were genetically modified to overexpress human PD-L1 and knock out murine PD-L1, the modified cells were named as MC38-hPD-L1 cells.
as §1
Tumor volume was measured 2-3 times a week in two dimensions using a caliper, and the volume was expressed in mm^3 using the formula: V=0.5 a×b^2 where a and b were the long and short diameters of the tumor, respectively.
(§9) At the termination of the experiment, the animals were photographed to record the tumor bearing state after euthanasia, and the tumors of the mice were weighed and photographed.
TGITV(%)=[1−(Ti−T0)/(Vi−V0)]×100%. […]
At the termination of the experiment, the animals were euthanized, the tumors were separated and weighed, and the difference of tumor weight between each group was calculated. Tumor weight inhibition (TGITW) was calculated by the formula: […]
as §3

[3] = system: subcutaneous MC38-hPD-L1 transplanted tumor; assay: Antibody 1.14.4 monotherapy or in combination with Lenvatinib mesylate on B-hPD-1 humanized mouse MC38-hPD-L1 colon cancer model: tumor volume, tumor weight, TGI, synergy score; assay type: in vivo
Protocol: as §8
(§10) MC38-hPD-L1 tumor cells were resuspended in 1×PBS to a concentration of 5×10^6 cells/mL. Each of the B-hPD-1 humanized mice was subcutaneously inoculated at the right lateral thorax region with 0.1 mL of the cell suspension, and a total of 85 mice were inoculated. On the 7th day after inoculation, when the average tumor volume reached about 103 mm^3, the mice with moderate tumor volume were selected and randomly divided into 8 groups according to tumor volume, with 7 mice in each group, and the treatment was initiated on the same day.
Tumor volume was measured three times a week in two dimensions using a caliper, and the volume was expressed in mm^3 using the formula: V=0.5 a×b^2 where a and b were the long and short diameters of the tumor, respectively.
as §9
TGITV(%)=[1−(Ti−T0)/(Vi−V0)]×100%.
Ti: tumor volume of the treatment group at day i following treatment; T0: tumor volume of the treatment group at day 0 following treatment; Vi: tumor volume of the control group at day i following treatment; V0: tumor volume of the control group at day 0 following treatment.
At the termination of the experiment, the animals were euthanized, the tumors were separated and weighed, and the difference of tumor weight between each group was calculated. Tumor weight inhibition (TGITW) was calculated by the formula:
TGITW (%)=(WC−WT)/[…]×100%; where We means tumor weight of control group, WT means tumor weight of treatment group.
(§11) The original data measured and observed must be recorded. The original data was analyzed and the results were expressed by mean and standard error (Mean±SEM). The data of body weight, tumor volume and tumor weight was statistically analyzed using independent-samples t-test. All data were analyzed using SPSS, P<0.05 is considered to be statistically significant. The results of the analysis were considered both statistical significance and biological significance.
as §4, §5, §6, §7

[4] = Body weight of B-hPD-1 mice bearing MC38-hPD-L1 tumors, Embodiment 1 (antibody 1.14.4 / Lenvatinib mesylate); assay type: in vivo, Mus musculus
Protocol: as §10, §2, §11

[5] = 17th day after the start of treatment, Antibody 2E5 1 mg/kg i.p., Lenvatinib mesylate 1 mg/kg p.o. QD (G2, G4, G5)

COc1cc2nccc(Oc3ccc(NC(=O)NC4CC4)c(Cl)c3)c2cc1C(N)=O [Lenvatinib mesylate, reference compound]
Weight (g)/Mean ± SEM Day 17 [1, 5]: 28.0 ± 0.8 g | Weight (g)/Mean ± SEM Day 0 ([1]; Day 0, Antibody 2E5 1 mg/kg i.p., Lenvatinib mesylate 1 mg/kg p.o. QD (G2, G4, G5)): 24.9 ± 0.8 g | Weight (g) Changes ([1]; Day 17 vs Day 0, Antibody 2E5 1 mg/kg, Lenvatinib mesylate 1 mg/kg (G2, G4, G5)): +3.1 g | Tumor volume (mm^3)/Mean ± SEM Day 17 [2, 5]: 891 ± 149 mm^3 | Tumor weight (g) Mean ± SEM ([2]; Day 17, Antibody 2E5 1 mg/kg, Lenvatinib mesylate 1 mg/kg (G2, G4, G5)): 0.767 ± 0.103 g | Tumor growth inhibition (%) ([2]; by tumor volume, Day 17, vs hIgG4 control, Antibody 2E5 1 mg/kg, Lenvatinib mesylate 1 mg/kg (G2, G4, G5)): 68.2% | Tumor growth inhibition (%) ([2]; tumor weight analysis (Table 21), Day 17, vs IgG4 control, Antibody 2E5 1 mg/kg, Lenvatinib mesylate 1 mg/kg (G2, G4, G5)): 63.2% | Tumor volume (mm^3)/Mean ± SEM Day 16 ([3]; 16th day after the start of treatment, antibody 1.14.4 3 mg/kg Q2D i.p., Lenvatinib mesylate 1 mg/kg QD p.o.): 1333 ± 261 mm^3 | Tumor volume (mm^3)/Mean ± SEM Day 0 ([3]; Day 0, Antibody 1.14.4 3 mg/kg, Lenvatinib mesylate 1 mg/kg, Table 11): 103 ± 8 mm^3 | Tumor volume (mm^3)/Mean ± SEM Day 0 ([3]; Day 0 = day of the start of treatment, antibody 1.14.4 3 mg/kg, Lenvatinib mesylate 1 mg/kg, Table 10): 103 ± 8 mm^3 | Tumor volume (mm^3)/Mean ± SEM Day 20 ([3]; Day 20, Antibody 1.14.4 3 mg/kg Q2D i.p., Lenvatinib mesylate 1 mg/kg QD p.o.): 1726 ± 374 mm^3 | Tumor weight (g) Mean ± SEM ([3]; Day 20, antibody 1.14.4 3 mg/kg, Lenvatinib mesylate 1 mg/kg, Table 13): 1.244 ± 0.292 g | Tumor weight (g), group Mean ([3]; group mean (7 mice), Day 20, Antibody 1.14.4 3 mg/kg, Lenvatinib mesylate 1 mg/kg): 1.244 g | Tumor weight (g), individual animal ([3]; individual mouse, 20th day after the start of treatment, Antibody 1.14.4 3 mg/kg Q2D i.p., Lenvatinib mesylate 1 mg/kg QD p.o.): 1.039 g and 2.048 g and 2.485 g and 0.652 g and 0.408 g and 1.362 g and 0.715 g | TGITV (%) ([3]; tumor growth inhibition by tumor volume, Day 16, vs hIgG4 control, antibody 1.14.4 3 mg/kg, Lenvatinib mesylate 1 mg/kg): 38.8% | TGITW ([3]; tumor weight inhibition vs hIgG4 control, Day 20, Antibody 1.14.4 3 mg/kg, Lenvatinib mesylate 1 mg/kg): 21.3% | Weight (g)/Mean ± SEM Day 16 ([4]; 16th day after the start of treatment, Antibody 1.14.4 3 mg/kg, Lenvatinib mesylate 1 mg/kg): 22.5 ± 0.2 g | Weight (g)/Mean ± SEM Day 0 ([4]; Day 0 = day of the start of treatment, Antibody 1.14.4 3 mg/kg, Lenvatinib mesylate 1 mg/kg): 19.9 ± 0.3 g | Weight (g) Changes ([4]; Day 16 vs Day 0, Antibody 1.14.4 3 mg/kg, Lenvatinib mesylate 1 mg/kg): +2.6 g | Days after the start of treatment/weight (g), group Mean, day 0 ([4]; group mean (7 mice), day 0, Antibody 1.14.4 3 mg/kg Q2D i.p., Lenvatinib mesylate 1 mg/kg QD p.o.): 19.9 g | Days after the start of treatment/weight (g), group Mean, day 3 ([4]; group mean (7 mice), day 3, Antibody 1.14.4 3 mg/kg Q2D i.p., Lenvatinib mesylate 1 mg/kg QD p.o.): 19.5 g | Days after the start of treatment/weight (g), group Mean, day 6 ([4]; group mean (7 mice), day 6, Antibody 1.14.4 3 mg/kg Q2D i.p., Lenvatinib mesylate 1 mg/kg QD p.o.): 20.3 g | Days after the start of treatment/weight (g), group Mean, day 8 ([4]; group mean (7 mice), day 8, Antibody 1.14.4 3 mg/kg Q2D i.p., Lenvatinib mesylate 1 mg/kg QD p.o.): 20.5 g | Days after the start of treatment/weight (g), group Mean, day 10 ([4]; group mean (7 mice), day 10, Antibody 1.14.4 3 mg/kg Q2D i.p., Lenvatinib mesylate 1 mg/kg QD p.o.): 20.9 g | Days after the start of treatment/weight (g), group Mean, day 12 ([4]; group mean (7 mice), day 12, Antibody 1.14.4 3 mg/kg Q2D i.p., Lenvatinib mesylate 1 mg/kg QD p.o.): 21.2 g | Days after the start of treatment/weight (g), group Mean, day 14 ([4]; group mean (7 mice), day 14, Antibody 1.14.4 3 mg/kg Q2D i.p., Lenvatinib mesylate 1 mg/kg QD p.o.): 22.3 g | Days after the start of treatment/weight (g), group Mean, day 16 ([4]; group mean (7 mice), day 16, Antibody 1.14.4 3 mg/kg Q2D i.p., Lenvatinib mesylate 1 mg/kg QD p.o.): 22.5 g | Days after the start of treatment/weight (g), group Mean, day 19 ([4]; group mean (7 mice), day 19, Antibody 1.14.4 3 mg/kg Q2D i.p., Lenvatinib mesylate 1 mg/kg QD p.o.): 21.9 g | Days after the start of treatment/weight (g), group Mean, day 20 ([4]; group mean (7 mice), day 20, Antibody 1.14.4 3 mg/kg Q2D i.p., Lenvatinib mesylate 1 mg/kg QD p.o.): 22.7 g | Days after the start of treatment/weight (g), individual animal, day 0 ([4]; individual mouse, day 0, Antibody 1.14.4 3 mg/kg Q2D i.p., Lenvatinib mesylate 1 mg/kg QD p.o.): 18.6 g and 19.5 g and 19.4 g and 20.0 g and 20.2 g and 20.8 g (2×) | Days after the start of treatment/weight (g), individual animal, day 3 ([4]; individual mouse, day 3, Antibody 1.14.4 3 mg/kg Q2D i.p., Lenvatinib mesylate 1 mg/kg QD p.o.): 18.8 g and 19.2 g and 18.9 g and 19.7 g and 19.3 g and 20.3 g and 20.2 g | Days after the start of treatment/weight (g), individual animal, day 6 ([4]; individual mouse, day 6, Antibody 1.14.4 3 mg/kg Q2D i.p., Lenvatinib mesylate 1 mg/kg QD p.o.): 19.4 g and 20.1 g and 19.8 g and 20.6 g and 20.3 g and 21.2 g and 20.8 g | Days after the start of treatment/weight (g), individual animal, day 8 ([4]; individual mouse, day 8, Antibody 1.14.4 3 mg/kg Q2D i.p., Lenvatinib mesylate 1 mg/kg QD p.o.): 19.5 g and 20.6 g and 20.4 g and 20.7 g and 20.3 g and 21.0 g (2×) | Days after the start of treatment/weight (g), individual animal, day 10 ([4]; individual mouse, day 10, Antibody 1.14.4 3 mg/kg Q2D i.p., Lenvatinib mesylate 1 mg/kg QD p.o.): 20.2 g and 21.1 g and 20.1 g and 21.5 g and 20.4 g and 21.7 g and 21.4 g | Days after the start of treatment/weight (g), individual animal, day 12 ([4]; individual mouse, day 12, Antibody 1.14.4 3 mg/kg Q2D i.p., Lenvatinib mesylate 1 mg/kg QD p.o.): 20.1 g and 21.1 g (2×) and 21.4 g and 20.7 g and 22.2 g and 21.6 g | Days after the start of treatment/weight (g), individual animal, day 14 ([4]; individual mouse, day 14, Antibody 1.14.4 3 mg/kg Q2D i.p., Lenvatinib mesylate 1 mg/kg QD p.o.): 20.9 g and 22.9 g and 22.0 g (2×) and 22.2 g and 23.0 g (2×) | Days after the start of treatment/weight (g), individual animal, day 16 ([4]; individual mouse, day 16, Antibody 1.14.4 3 mg/kg Q2D i.p., Lenvatinib mesylate 1 mg/kg QD p.o.): 21.6 g and 22.8 g (2×) and 22.6 g and 22.5 g and 21.9 g and 23.0 g | Days after the start of treatment/weight (g), individual animal, day 19 ([4]; individual mouse, day 19, Antibody 1.14.4 3 mg/kg Q2D i.p., Lenvatinib mesylate 1 mg/kg QD p.o.): 21.2 g and 23.0 g (2×) and 21.9 g and 21.4 g and 22.6 g and 20.3 g | Days after the start of treatment/weight (g), individual animal, day 20 ([4]; individual mouse, day 20, Antibody 1.14.4 3 mg/kg Q2D i.p., Lenvatinib mesylate 1 mg/kg QD p.o.): 21.5 g and 23.2 g (3×) and 22.6 g and 22.1 g and 22.9 g

— patent US20220387417A1, “Pharmaceutical Combination and Use Thereof” (CSTONE PHARMACEUTICALS (SUZHOU) CO., LTD., priority 2019, published 2022)
